Data from ChEMBL document CHEMBL4706517, “Discovery of novel berberine derivatives with balanced cholinesterase and prolyl oligopeptidase inhibition profile” (Eur J Med Chem, 2020).
Calls of active or inactive are those of the source. The calls are words filed in the database; no cut-off is given here.

Experiments:
Prolyl endopeptidase = target: T1, Prolyl endopeptidase (Homo sapiens, UniProt P48147)
T1 sequence (P48147 whole entry): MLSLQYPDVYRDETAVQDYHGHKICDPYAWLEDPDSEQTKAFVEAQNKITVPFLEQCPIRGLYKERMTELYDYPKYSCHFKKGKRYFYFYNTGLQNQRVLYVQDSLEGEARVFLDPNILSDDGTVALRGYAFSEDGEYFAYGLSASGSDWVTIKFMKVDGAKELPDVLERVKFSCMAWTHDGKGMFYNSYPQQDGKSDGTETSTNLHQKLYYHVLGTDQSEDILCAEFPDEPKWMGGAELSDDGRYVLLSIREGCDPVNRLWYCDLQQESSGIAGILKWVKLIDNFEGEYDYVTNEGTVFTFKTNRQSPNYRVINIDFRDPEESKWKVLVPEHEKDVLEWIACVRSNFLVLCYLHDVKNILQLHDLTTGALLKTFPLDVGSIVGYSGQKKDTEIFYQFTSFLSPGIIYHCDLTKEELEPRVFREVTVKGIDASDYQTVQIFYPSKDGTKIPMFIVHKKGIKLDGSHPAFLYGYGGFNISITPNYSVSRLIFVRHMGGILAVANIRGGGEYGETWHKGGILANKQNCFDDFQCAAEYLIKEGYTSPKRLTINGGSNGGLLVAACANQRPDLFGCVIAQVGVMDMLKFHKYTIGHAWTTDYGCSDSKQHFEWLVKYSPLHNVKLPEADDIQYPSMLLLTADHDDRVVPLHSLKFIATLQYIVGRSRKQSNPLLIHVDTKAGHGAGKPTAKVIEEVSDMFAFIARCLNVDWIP
Description: Inhibition of recombinant human Prolyl oligopeptidase expressed in Escherichia coli expression system using (Z)-Gly-Pro-p-nitroanilide as substrate preincubated with enzyme for 5 mins followed by substrate addition and measured for 30 mins by spectrophotometric analysis

CHO-K1 = experiment: Cytotoxicity against CHO-K1 cells assessed as reduction in cell viability measured after 24 hrs by MTT assay; format: cell-based, Cricetulus griseus
in vitro = conditions: PAMPA, pH 7.4
Description: Permeability of the compound at pH 7.4 measured after 6 hrs by PAMPA method

Acetylcholinesterase [1] = target: T2, Acetylcholinesterase (Homo sapiens, UniProt P22303); experiment: Inhibition of recombinant human acetylcholinesterase using acetylthiocholine iodide as substrate preincubated with enzyme for 5 mins followed by substrate addition and measured at 2 mins interval by Ellman's method
[2] = Antioxidant activity assessed as radical scavenging activity measured after 30 mins by microplate reader based DPPH assay; format: functional
[3] = Inhibition of HFIP-pretreated Tau (306 to 336) (unknown origin) self-aggregation at 25 uM measured at interval of 10 mins for overnight with 1 min shaking by thioflavin-T fluorescence method; conditions: Homo sapiens
Acetylcholinesterase [4] = target: T2, Acetylcholinesterase; experiment: Noncompetitive inhibition of human acetylcholinesterase assessed as affinity towards free enzyme using acetylthiocholine iodide as substrate measured by Ellman's method based Lineweaver-Burk plot analysis
Acetylcholinesterase [5] = target: T2, Acetylcholinesterase; experiment: Noncompetitive inhibition of human acetylcholinesterase assessed as decrease in apparent Vmax with unchanged Km using acetylthiocholine iodide as substrate by Lineweaver-Burk plot analysis
[6] = Antioxidant activity assessed as radical scavenging activity incubated for 20 mins by DPPH assay based UV spectrophotometer analysis; format: functional
[7] = Cricetulus griseus, CHO-K1, 24 h, read-out: IC50

T2 sequence (P22303 whole entry): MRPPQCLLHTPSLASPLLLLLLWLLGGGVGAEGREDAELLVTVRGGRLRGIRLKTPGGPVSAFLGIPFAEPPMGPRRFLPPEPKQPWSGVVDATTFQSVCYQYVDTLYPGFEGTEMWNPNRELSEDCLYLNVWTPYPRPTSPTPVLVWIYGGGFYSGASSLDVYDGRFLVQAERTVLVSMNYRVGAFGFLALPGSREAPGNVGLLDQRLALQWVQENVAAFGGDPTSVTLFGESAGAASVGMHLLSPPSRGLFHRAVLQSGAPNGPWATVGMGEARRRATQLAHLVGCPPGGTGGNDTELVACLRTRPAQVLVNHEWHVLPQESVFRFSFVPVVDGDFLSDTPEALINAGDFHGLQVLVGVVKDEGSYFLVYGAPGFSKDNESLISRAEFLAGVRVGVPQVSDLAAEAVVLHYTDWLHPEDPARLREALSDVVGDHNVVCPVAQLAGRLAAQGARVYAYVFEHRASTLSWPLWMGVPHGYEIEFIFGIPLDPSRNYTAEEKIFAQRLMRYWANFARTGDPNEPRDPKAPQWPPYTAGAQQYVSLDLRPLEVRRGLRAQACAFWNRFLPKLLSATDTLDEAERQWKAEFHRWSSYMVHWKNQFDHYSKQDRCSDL

## COc1ccc2cc3[n+](cc2c1OCc1ccc(Br)cc1)CCc1cc2c(cc1-3)OCO2.[Br-]
Prolyl endopeptidase
  IC50: 19.4 µM
CHO-K1; [7]
  IC50: 48 µM
In vitro
  Papp at 6 h: 0.6 ×10⁻⁶ cm/s
Acetylcholinesterase [1]
  IC50: 3.3 µM
[2]
  EC50: > 6000 µM

## COc1ccc2cc3[n+](cc2c1OCc1ccc(Cl)c(Cl)c1)CCc1cc2c(cc1-3)OCO2
Prolyl endopeptidase
  IC50: 52.7 µM
CHO-K1; [7]
  IC50: 9 µM
Acetylcholinesterase [1]
  IC50: 1.22 µM
[2]
  EC50: > 6000 µM

## COc1ccc2cc3[n+](cc2c1OCc1ccc(C#N)cc1)CCc1cc2c(cc1-3)OCO2
Prolyl endopeptidase
  IC50: 36.5 µM
CHO-K1; [7]
  IC50: 292 µM
Acetylcholinesterase [1]
  IC50: 1.7 µM
[2]
  EC50: > 6000 µM

## COc1ccc2cc3[n+](cc2c1OCc1ccc(SC)cc1)CCc1cc2c(cc1-3)OCO2
Prolyl endopeptidase
  IC50: 34 µM
CHO-K1; [7]
  IC50: 43 µM
Acetylcholinesterase [1]
  IC50: 2.6 µM
[2]
  EC50: > 6000 µM

## COc1ccc2cc3[n+](cc2c1OCc1ccc([N+](=O)[O-])cc1)CCc1cc2c(cc1-3)OCO2.[Br-]
Prolyl endopeptidase
  IC50: 21.2 µM
CHO-K1; cho-k1
  IC50: Nd(Insoluble)
In vitro
  Papp at 6 h: 1.4 ×10⁻⁶ cm/s
Acetylcholinesterase [1]
  IC50: 0.99 µM
[2]
  EC50: 5000 µM

## COc1ccc2cc3[n+](cc2c1OC(C)c1ccccc1)CCc1cc2c(cc1-3)OCO2.[Br-] (configuration not stated)
Prolyl endopeptidase
  IC50: 29.5 µM
CHO-K1; [7]
  IC50: 42 µM
In vitro
  Papp at 6 h: 0.4 ×10⁻⁶ cm/s
Acetylcholinesterase [1]
  IC50: 0.79 µM
[2]
  EC50: 5600 µM
[3]
  inhibition: 38.3%

## C[C@H]1c2cccc(O)c2C(=O)C2=C(O)[C@]3(O)C(=O)C(C(N)=O)=C(O)[C@@H](N(C)C)[C@@H]3[C@@H](O)[C@@H]21
[3]
  inhibition: 39.6%

## COc1ccc2cc3[n+](cc2c1OCc1ccc(C)cc1)CCc1cc2c(cc1-3)OCO2.[Br-]
Prolyl endopeptidase
  IC50: 10.7 µM
CHO-K1; [7]
  IC50: 43 µM
In vitro
  Papp at 6 h: 0.8 ×10⁻⁶ cm/s
Acetylcholinesterase [1]
  IC50: 75.8 µM
[2]
  EC50: 1900 µM
[3]
  inhibition: 31.9%

## COc1ccc2cc3[n+](cc2c1OCc1ccc(C(C)C)cc1)CCc1cc2c(cc1-3)OCO2
Prolyl endopeptidase
  IC50: 53.3 µM
CHO-K1; [7]
  IC50: 17 µM
Acetylcholinesterase [1]
  IC50: 4.2 µM
[2]
  EC50: 1300 µM

## COc1ccc2cc3[n+](cc2c1OCc1cccc(Br)c1)CCc1cc2c(cc1-3)OCO2
Prolyl endopeptidase
  IC50: 59.6 µM
CHO-K1; [7]
  IC50: 32 µM
Acetylcholinesterase [1]
  IC50: 2.7 µM
[2]
  EC50: 2200 µM

## COc1ccc2cc3[n+](cc2c1OCc1ccccc1)CCc1cc2c(cc1-3)OCO2.[Br-]
Prolyl endopeptidase
  IC50: 25.4 µM
CHO-K1; [7]
  IC50: 55 µM
In vitro
  Papp at 6 h: 0.4 ×10⁻⁶ cm/s
Acetylcholinesterase [1]
  IC50: 5 µM
[2]
  EC50: 1900 µM

## Nc1c2c(nc3ccccc13)CCCC2 [TACRINE]
In vitro
  Papp at 6 h: 6 ×10⁻⁶ cm/s

## COc1ccc2cc3[n+](cc2c1OCc1cccc(C)c1)CCc1cc2c(cc1-3)OCO2
Prolyl endopeptidase
  IC50: 79.1 µM
CHO-K1; [7]
  IC50: 58 µM
Acetylcholinesterase [1]
  IC50: 7.3 µM
[2]
  EC50: 1200 µM

## COc1ccc2cc3[n+](cc2c1OCc1ccccc1C)CCc1cc2c(cc1-3)OCO2
Prolyl endopeptidase
  IC50: 71.1 µM
CHO-K1; [7]
  IC50: 55 µM
Acetylcholinesterase [1]
  IC50: 10.4 µM
[2]
  EC50: 1200 µM

## COC(=O)c1ccc(COc2c(OC)ccc3cc4[n+](cc23)CCc2cc3c(cc2-4)OCO3)cc1
Prolyl endopeptidase
  IC50: 47.6 µM
CHO-K1; [7]
  IC50: 50 µM
Acetylcholinesterase [1]
  IC50: 2.6 µM
[2]
  EC50: 5300 µM

## COc1ccc2cc3[n+](cc2c1OCc1ccc(C(F)(F)F)cc1)CCc1cc2c(cc1-3)OCO2.[Br-]
Prolyl endopeptidase
  IC50: 27.4 µM
CHO-K1; [7]
  IC50: 21 µM
In vitro
  Papp at 6 h: 0.8 ×10⁻⁶ cm/s
Acetylcholinesterase [4]
  Ki: 0.000456 µM
Acetylcholinesterase [1]
  IC50: 1.3 µM
Acetylcholinesterase [5]
  inhibition: Active
[2]
  EC50: 5300 µM

## COc1ccc(COc2c(OC)ccc3cc4[n+](cc23)CCc2cc3c(cc2-4)OCO3)cc1.[Br-]
Prolyl endopeptidase
  IC50: 40.5 µM
CHO-K1; [7]
  IC50: 42 µM
In vitro
  Papp at 6 h: 4.8 ×10⁻⁶ cm/s
Acetylcholinesterase [1]
  IC50: 5.3 µM
[2]
  EC50: > 6000 µM

## COc1ccc2cc3[n+](cc2c1OCc1ccccc1Br)CCc1cc2c(cc1-3)OCO2
Prolyl endopeptidase
  IC50: 38.9 µM
CHO-K1; [7]
  IC50: 26 µM
Acetylcholinesterase [1]
  IC50: 1.7 µM
[2]
  EC50: > 6000 µM

## COc1ccc2cc3[n+](cc2c1OCc1ccc2ccccc2c1)CCc1cc2c(cc1-3)OCO2.[Br-]
Prolyl endopeptidase
  IC50: 28.5 µM
CHO-K1; [7]
  IC50: 14 µM
In vitro
  Papp at 6 h: 0.8 ×10⁻⁶ cm/s
Acetylcholinesterase [1]
  IC50: 1.5 µM
[2]
  EC50: > 6000 µM
[3]
  inhibition: 62%

## COc1ccc2cc3[n+](cc2c1OC)CCc1cc2c(cc1-3)OCO2.[Cl-] [BERBERINE CHLORIDE]
CHO-K1; [7]
  IC50: 336 µM
In vitro
  Papp at 6 h: 0.2 ×10⁻⁶ cm/s
[2]
  EC50: 5500 µM
[3]
  inhibition: 25%

## COc1ccc2cc3[n+](cc2c1OCc1cc(C)cc(C)c1)CCc1cc2c(cc1-3)OCO2
Prolyl endopeptidase
  IC50: 58.7 µM
CHO-K1; [7]
  IC50: 23 µM
Acetylcholinesterase [1]
  IC50: 2.5 µM
[2]
  EC50: 990 µM

## Cc1c(C)c2c(c(C)c1O)CCC(C)(C(=O)O)O2 (configuration not stated) [TROLOX]
[2]
  EC50: 16.2 µM

## COc1ccc2cc3[n+](cc2c1O)CCc1cc2c(cc1-3)OCO2 [BERBERRUBINE CHLORIDE]
[6]
  EC50: 87 µM

## CC(=O)N[C@@H](CS)C(=O)O [ACETYLCYSTEINE]
[2]
  EC50: 27.9 µM

## COc1cccc(COc2c(OC)ccc3cc4[n+](cc23)CCc2cc3c(cc2-4)OCO3)c1
Prolyl endopeptidase
  IC50: 40.4 µM
CHO-K1; [7]
  IC50: 46 µM
Acetylcholinesterase [1]
  IC50: 3.5 µM
[2]
  EC50: 5300 µM

## CO/N=C(\C(=O)N[C@@H]1C(=O)N2C(C(=O)O)=C(COC(N)=O)CS[C@H]12)c1ccco1 [CEFUROXIME]
In vitro
  Papp at 6 h: 0.3 ×10⁻⁶ cm/s

## COc1ccc2cc3[n+](cc2c1OCc1cccc([N+](=O)[O-])c1)CCc1cc2c(cc1-3)OCO2.[Br-]
Prolyl endopeptidase
  IC50: 24.7 µM
CHO-K1; [7]
  IC50: 30 µM
In vitro
  Papp at 6 h: 1.2 ×10⁻⁶ cm/s
Acetylcholinesterase [1]
  IC50: 1.45 µM
[2]
  EC50: 5600 µM

## COc1ccc2cc3[n+](cc2c1OCc1ccc(Cl)cc1)CCc1cc2c(cc1-3)OCO2
Prolyl endopeptidase
  IC50: 39.4 µM
CHO-K1; [7]
  IC50: 13 µM
Acetylcholinesterase [1]
  IC50: 2.5 µM
[2]
  EC50: 5200 µM

## COc1ccc2cc3[n+](cc2c1OCc1cccc(Cl)c1)CCc1cc2c(cc1-3)OCO2
Prolyl endopeptidase
  IC50: 67 µM
CHO-K1; [7]
  IC50: 30 µM
Acetylcholinesterase [1]
  IC50: 1.9 µM
[2]
  EC50: 5400 µM
